Measurements: PubChem BioAssay (NCI)
Values joined by “and” are separate entries in the source; they are usually repeats but may differ in a detail not shown here. Equal entries are not always repeated.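 Values below derive from 48-hour exposures of cells grown in 96-well plates, with endpoints linearly interpolated between the two concentrations bracketing the appropriate inhibition level. GI50: concentration for 50% inhibition of growth. Definition used: TGI = concentration required for complete inhibition of growth.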

Legend:
Assay in all cases: inhibition of tumour cell growth, NCI panel, 48 h
DMS 273 small cell lung = system: DMS 273 small cell lung
HCT-15 colon = system: HCT-15 colon
M14 melanoma = system: M14 melanoma
M19-MEL melanoma = system: M19-MEL melanoma
NCI-H226 lung = system: NCI-H226 lung
NCI/ADR-RES ovarian = system: NCI/ADR-RES ovarian
OVCAR-3 ovarian = system: OVCAR-3 ovarian
OVCAR-8 ovarian = system: OVCAR-8 ovarian
SK-MEL-28 melanoma = system: SK-MEL-28 melanoma
SK-OV-3 ovarian = system: SK-OV-3 ovarian

| Structure (SMILES) | GI50 (DMS 273 small cell lung) | TGI (DMS 273 small cell lung) | GI50 (HCT-15 colon) | TGI (HCT-15 colon) | GI50 (M14 melanoma) | TGI (M14 melanoma) | GI50 (M19-MEL melanoma) | TGI (M19-MEL melanoma) | GI50 (NCI-H226 lung) | TGI (NCI-H226 lung) | GI50 (NCI/ADR-RES ovarian) | GI50 (OVCAR-3 ovarian) | TGI (OVCAR-3 ovarian) | GI50 (OVCAR-8 ovarian) | GI50 (SK-MEL-28 melanoma) | TGI (SK-MEL-28 melanoma) | GI50 (SK-OV-3 ovarian) | TGI (SK-OV-3 ovarian) | TGI (OVCAR-8 ovarian) | TGI (NCI/ADR-RES ovarian) |
| --- | --- | --- | --- | --- | --- | --- | --- | --- | --- | --- | --- | --- | --- | --- | --- | --- | --- | --- | --- | --- |
| CC[C@H]1CN2CCc3cc(OC)c(OC)cc3[C@@H]2C[C@@H]1C[C@H]1NCCc2c1[nH]c1ccc(O)cc21 | 0.0261 µM | 0.084 µM and 0.024 µM | 0.688 µM | 5.38 µM and 4.1 µM | 0.0365 µM and 0.0275 µM | 0.162 µM and 0.0729 µM and 0.0478 µM | 0.0164 µM and 0.0241 µM | 0.0461 µM and 0.076 µM and < 0.0112 µM | 0.0282 µM and 0.0409 µM | 0.0778 µM and 0.261 µM and 0.0326 µM | 0.0161 µM | 0.0156 µM | 0.0622 µM and 0.089 µM and 0.25 µM | 0.0323 µM and 0.0377 µM | 0.0316 µM and 0.0425 µM | 0.0813 µM and 0.256 µM and 0.41 µM | 0.0348 µM and 0.0711 µM | 0.142 µM and 0.431 µM and 0.529 µM |  |  |
| Cc1c(/C=N/NC(=O)c2ccc(Cl)cc2)c(=O)n(-c2ccccc2)n1C |  | > 100 µM |  | > 100 µM |  | > 100 µM |  | > 100 µM |  | > 100 µM |  |  | > 100 µM |  |  | > 100 µM |  | > 100 µM | > 100 µM |  |
| O=C(O)CC(NC(=O)CP(=O)(O)O)C(=O)O (stereo unspecified) |  | > 9020 µM |  | 9160 µM |  | > 10000 µM |  | > 10000 µM |  | 7210 µM |  |  | > 10000 µM |  | 389 µM | > 10000 µM |  | > 7930 µM | > 8110 µM | > 10000 µM |
| O=C(/C=C/c1ccccc1Cl)NC1C=Nc2ccc([N+](=O)[O-])cc2NC1 (stereo unspecified) |  | > 100 µM |  | > 100 µM |  | > 100 µM |  | > 100 µM |  | > 100 µM |  |  | > 100 µM |  |  | > 100 µM |  | > 100 µM | > 100 µM |  |
| O=Cc1ccc2c(c1-c1c(C=O)ccc3c1OCO3)OCO2 |  | > 100 µM |  | > 100 µM |  | > 100 µM |  | > 100 µM |  | > 100 µM |  |  | > 100 µM |  |  | > 100 µM |  | > 100 µM | > 100 µM |  |
